{"source": "patent US6040149A", "about": "“Assay for identifying agents which act on the ceramide-activated protein kinase, kinase suppressor of ras, and methods of using said agents” (priority 1997, dated 2000)", "key": {"KSR [1]": {"target": "T1, KSR (Mus musculus, UniProt Q61097)", "T1 sequence (Q61097 1-873)": "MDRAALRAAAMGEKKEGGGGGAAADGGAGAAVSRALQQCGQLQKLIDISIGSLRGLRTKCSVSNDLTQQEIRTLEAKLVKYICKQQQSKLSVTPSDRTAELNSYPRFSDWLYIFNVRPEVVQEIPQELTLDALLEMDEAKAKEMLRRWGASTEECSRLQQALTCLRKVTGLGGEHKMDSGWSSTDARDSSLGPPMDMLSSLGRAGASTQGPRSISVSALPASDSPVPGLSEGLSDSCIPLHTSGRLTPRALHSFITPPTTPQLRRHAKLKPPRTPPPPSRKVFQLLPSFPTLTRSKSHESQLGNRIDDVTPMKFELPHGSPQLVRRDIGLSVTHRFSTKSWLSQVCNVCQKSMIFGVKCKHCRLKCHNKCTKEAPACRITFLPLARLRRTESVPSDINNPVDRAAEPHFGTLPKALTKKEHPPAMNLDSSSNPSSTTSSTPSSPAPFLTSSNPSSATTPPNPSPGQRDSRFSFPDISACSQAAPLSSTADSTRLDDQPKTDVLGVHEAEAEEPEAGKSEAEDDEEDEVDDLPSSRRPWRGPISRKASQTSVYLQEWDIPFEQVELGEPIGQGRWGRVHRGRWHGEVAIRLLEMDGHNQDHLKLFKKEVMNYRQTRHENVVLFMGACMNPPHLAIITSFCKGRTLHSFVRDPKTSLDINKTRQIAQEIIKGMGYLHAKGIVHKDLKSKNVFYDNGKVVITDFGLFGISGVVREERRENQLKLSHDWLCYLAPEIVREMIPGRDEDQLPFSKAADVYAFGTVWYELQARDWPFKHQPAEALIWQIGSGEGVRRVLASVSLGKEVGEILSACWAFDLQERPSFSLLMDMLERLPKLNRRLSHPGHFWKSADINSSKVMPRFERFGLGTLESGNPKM", "assay": "KSR autophosphorylation in vitro", "assay_type": "biochemical, mouse (KSR immunoprecipitated from COS-7 cells)", "set-up": "Raf-1 peptides as substrate", "protocol": "Phosphorylated KSR was resolved and detected as in FIG. 2A.\nKSR was immunoprecipitated as above from 0.8 mg NP-40 lysate protein with 40 μl agarose-conjugated anti-Flag antibody at 4° C. for 4 hrs or overnight. […] The reaction was stopped by addition of Laemmli sample buffer. Samples were resolved by 7.5% sodium dodecyl sulfate-polyacrylamide gel electrophoresis (SDS-PAGE) and autoradiographed."}, "[2]": {"test_system": "ceramide-activated protein kinase", "assay": "Ceramide-activated protein kinase activity (EGFR peptide) in EL-4 cell fractions", "conditions": "10 nM to 1 μM"}, "KSR [3]": {"target": "T1, KSR", "assay": "Phosphorylation and activation of recombinant Raf-1 by KSR immunoprecipitated from treated COS-7 cells", "assay_type": "cell-based, mouse (KSR expressed in COS-7 cells)", "conditions": "C2-ceramide 1 μM; TNFα 10 nM", "protocol": "FIGS. 23B-23C--COS-7 cells expressing Flag-tagged KSR were stimulated with 1 μM C2-ceramide for 10 min and lysed with NP-40 buffer as in FIG. 23A. […] The autoradiogram was exposed for 1 hour. Data represent one of three experiments.\nCOS-7 cells expressing Flag-tagged KSR were stimulated with 10 nM TNFα for the times indicated and lysed with NP-40 buffer as in FIG. 2A. […] The autoradiogram was exposed for 1 hour. Data represent one of three similar experiments.\nImmunoprecipitated KSR was incubated with reaction buffer A containing 0.5 mM ATP and a protein kinase inhibitor cocktail [20 μM PKC inhibitor peptide (UBI), 2 μM protein kinase A inhibitor peptide (UBI) and 20 μM R24571 (Sigma)] for 30 min at 22° C."}, "KSR/Raf-1 complex": {"test_system": "KSR/Raf-1 complex", "assay": "Co-immunoprecipitation of KSR and Raf-1 from treated COS-7 cells", "assay_type": "cell-based, mouse KSR (COS-7 cells)", "conditions": "TNFα", "protocol": "FIG. […] Cells were lysed with NP-40 buffer and subjected to 4 hr of immunoprecipitation with anti-Raf-1 antibody. Two controls, KSR and KSR with ceramide treatment, received protein A conjugated sepharose beads without anti-Raf-1 antibody. […] Data represent one of four similar experiments.\nCell lysates were subjected to immunoprecipitation with anti-Flag antibody. Immunoprecipitated samples were handled as in FIG. 24A except Western blot analysis was performed with anti-Raf-1 antibody. Data represent one of three similar experiments.\nAnti-Raf-1 antibody conjugated beads were prepared by overnight incubation of 2 μl of anti-Raf-1 antibody (a kind gift of Dr. Debbie Morrison) with 5 mg of the protein A conjugated sepharose beads, followed by washing three times with NP-40 lysis buffer. […] Lysates (0.8 mg total protein) were then incubated for 4 hrs with anti-Raf-1 bound sepharose beads or anti-Flag conjugated agarose beads. The beads were washed vigorously 5 times, boiled in Laemmli sample buffer, and proteins were separated on 7.5% SDS-PAGE. After electrophoresis, the gel was transferred to PVDF membrane and probed with anti-Flag antibody or anti-Raf-1 antibody."}, "[4]": {"test_system": "ceramide-activated protein kinase", "conditions": "treatment of intact cells; literature; cited from earlier work"}}, "data": [{"compound": "CCCCCCCCCCCCCC(=O)O[C@@H]1[C@@H](C)[C@@]2(O)[C@@H](C=C(CO)C[C@]3(O)C(=O)C(C)=C[C@@H]23)[C@@H]2C(C)(C)[C@]12OC(C)=O", "note": "[TPA, 12-0-tetradecanoylphorbol-13-acetate]", "values": [{"measurement": "effect on activation of KSR", "setting": "KSR [1]", "value": "no effect"}]}, {"compound": "CCCCCCCCCCCCC/C=C/[C@@H](O)[C@@H](N)CO", "note": "[sphingosine]", "values": [{"measurement": "enhancement of kinase activity, of control", "setting": "[2]", "value": "1.5-2.5 of control"}]}, {"compound": "TNF-α", "values": [{"measurement": "activity of immunoprecipitated KSR to phosphorylate and activate Raf-1", "setting": "KSR [3]", "value": "stimulated dramatically"}, {"measurement": "KSR complex formation with Raf-1", "setting": "KSR/Raf-1 complex", "value": "induced KSR to complex with Raf-1"}, {"measurement": "enhancement of CAP kinase autophosphorylation / activity", "setting": "[4]", "value": "5-10 fold"}]}]}
